Laboratory results taken from patent US20210348086A1, “COMPOSITION” (Conopco Inc., d/b/a UNILEVER, priority 2018, published 2021).

Test system: bacterial pool: Burkholderia cepacia, Pseudomonas aeruginosa, Psuedomonas putida, Acinetobacter lwoffii
Assay: Modified preservative challenge test (Ph. Eur. 5.1.3) in laundry liquid, Total Viable Count pour plate
Assay type: cell-based
Conditions: for Preservation of a laundry liquid composition (result in words): summary of the challenge test data set
Procedure: A modified challenge that complies with the current European Pharmacopoeia (Ph. Eur. Or EP) 5.1.3 criteria was performed on a subsample of both the unpreserved and each dosed product. The bacterial pool was added to each sample container at a ratio of 1:100. The final concentration of inoculum in the product should be between 5×10^5 and 5×10^6 CFU/G of test product. Each product is mixed with a sterile spatula to ensure a homogenous distribution of the inocula throughout the product. [table] Both the inoculum level and the level of microorganism within each sample was quantified using a Total Viable Count (TVC) pour plate method at 7, 14, 21 and 28 days. A 1:10 dilution was made with a subsample of each product, performed separately in Peptone (0.1%)/tween 80 (2%) neutralising agent. A 1:10 and 1:100 dilution of each subsample was performed and pour plates produced at each dilution using tryptone soya agar. Plates were incubated at 28° C. for 48 hours and then examined for growth. Visible colonies were counted with the aid of a Quebec Colony Counter and recorded for analysis against the challenge test criteria. During the removal of a subsample of product for TVC, a re-inoculation is performed at 7 and 14 days, reintroducing 5×10^6 CFU/G of bacteria before mixing using a sterile spatula to homogenise the re-inoculation.

[1] = 0.5% in Example 1 laundry liquid, 7 days
[2] = 0.5% in Example 1 laundry liquid, 14 days, re-inoculated at 7 days
[3] = 0.5% in Example 1 laundry liquid, 21 days, re-inoculated at 7 and 14 days
[4] = 0.5% in Example 1 laundry liquid, 28 days, re-inoculated at 7 and 14 days
[5] = 1.0% in Example 1 laundry liquid, 7 days
[6] = 1.0% in Example 1 laundry liquid, 14 days, re-inoculated at 7 days
[7] = 1.0% in Example 1 laundry liquid, 21 days, re-inoculated at 7 and 14 days
[8] = 1.0% in Example 1 laundry liquid, 28 days, re-inoculated at 7 and 14 days

Compound: O=C(O)CC(O)(CC(=O)O)C(=O)O [Citric acid]
- Microbial Log reduction [1]: >5.59
- Microbial Log reduction [2]: <2.54
- Microbial Log reduction [3]: <2.56
- Microbial Log reduction [4]: <2.56
- Microbial Log reduction [5]: >5.59
- Microbial Log reduction [6]: >5.54
- Microbial Log reduction [7]: >5.56
- Microbial Log reduction [8]: >5.56
- Preservation of a laundry liquid composition (result in words): not capable of effectively preserving a laundry liquid composition

Compound: C=C(CC(=O)O)C(=O)O [Itaconic acid]
- Microbial Log reduction [1]: >5.59
- Microbial Log reduction [2]: >5.54
- Microbial Log reduction [3]: >5.56
- Microbial Log reduction [4]: >5.56
- Microbial Log reduction [5]: >5.59
- Microbial Log reduction [6]: >5.54
- Microbial Log reduction [7]: >5.56
- Microbial Log reduction [8]: >5.56
- Preservation of a laundry liquid composition (result in words): effective preservative

Compound: CC(O)C(=O)O (stereo not drawn) [Lactic acid]
- Microbial Log reduction [1]: >5.59
- Microbial Log reduction [2]: 2.32
- Microbial Log reduction [3]: <2.56
- Microbial Log reduction [4]: <2.56
- Microbial Log reduction [5]: >5.59
- Microbial Log reduction [6]: >5.54
- Microbial Log reduction [7]: >5.56
- Microbial Log reduction [8]: >5.56
- Preservation of a laundry liquid composition (result in words): not capable of effectively preserving a laundry liquid composition
